From ChEMBL document CHEMBL6178013, “Ferroptosis of Cancer Cells via Tubulin Degradation and Mitochondrial Dysfunction: A Novel Mechanism of Anticancer Effect for Small-Molecule Anion Transporters” (J Med Chem, 2025)
In brackets after ≈: the same amount, converted by molar mass. Activity calls are given as the source filed them. The rule behind the calls is not given here.

What was measured:
HeLa [1] = assay: Induction of ferroptosis in human HeLa cells assessed as increase in Bad level at 0.1 to 1 uM incubated for 24 hrs by immunoblotting analysis; assay type: functional, cell-based; conditions: dose 0.1-1 µM
Chloride [2] = assay: Binding affinity to chloride anions in human HeLa cells assessed as decrease in orange fluorescence in cytoplasm at 5 uM incubated for 6 hrs by AO staining based analysis relative to control; assay type: cell-based; parameters: scale not given: the % may be the effect or the level left
HeLa [3] = assay: Induction of ferroptosis in human HeLa cells assessed as increase in Bax level at 0.1 to 1 uM incubated for 24 hrs by immunoblotting analysis; assay type: functional, cell-based; conditions: dose 0.1-1 µM
HeLa [4] = assay: Effect on ferroptosis pathway in human HeLa cells at 10 uM incubated for 48 hrs by KEGG analysis; assay type: functional, cell-based
Chloride [5] = assay: Binding affinity to chloride anions assessed as fold increase in anionophoric activity in egg-yolk L-alpha-phosphatidylcholine liposome model measured per lipid by pyranine-based fluorescent assay relative to m-Bimbe
HeLa [6] = assay: Induction of lipid peroxidation in human HeLa cells assessed as increase in ROS generation incubated for 24 hrs by flow cytometry; assay type: functional, cell-based; conditions: dose 0.1-1 µM
HeLa [7] = assay: Cytotoxicity against human HeLa cells incubated for 48 hrs by MTT assay; assay type: functional, cell-based
Tubulin (Homo sapiens) = Tubulin (Homo sapiens) (UniProt P68371+Q9H4B7+P0DPH7+P68366+Q13509+Q71U36+P04350+Q3ZCM7+P07437+P68363+Q9BQE3+Q6PEY2+Q13885+Q9BVA1+Q9BUF5); assay: Induction of tubulin degradation in human HeLa cells assessed as disruption of tubulin network at 10 uM incubated for 16 hrs by immunofluorescence based analysis; assay type: cell-based
HeLa [8] = assay: Induction of mitochondrial membrane permeability in human HeLa cells assessed as red fluorescence at 1 uM incubated for 24 hrs by JC-1 staining based analysis (reference value: 98.5 %); assay type: functional
[9] = Tmax in male CD-1 mouse at 1 mg/kg, ip measured for 0.083 to 48 hrs by HPLC/MS/MS analysis; assay type: ADME, organism-based; conditions: in vivo, time 0.083-48 hrs
HeLa [10] = assay: Induction of cell cycle arrest in human HeLa cells assessed as accumulation of cells at S phase at 0.5 uM incubated for 24 hrs by PI staining based flow cytometry relative to control; assay type: functional
Chloride [11] = assay: Binding affinity to chloride anions assessed as chloride efflux in egg-yolk L-alpha-phosphatidylcholine liposome model harboring intravesicular RbCl/extravesicular NaNO3
HeLa [12] = assay: Induction of beta III-tubulin degradation in human HeLa cells up to 10 uM preincubated with MG132 followed by compound addition measured after 24 hrs by immunoblotting analysis; assay type: cell-based
[13] = Toxicity in male Balb/C nude mouse xenografted with human HeLa cells assessed as body weight change at 20 mg/kg, ip administered on every 2 days measured after 18 days; assay type: organism-based; conditions: in vivo, 432 h, time 18 day
[14] = Oral bioavailability in male CD-1 mouse at 1 mg/kg measured for 0.083 to 48 hrs by HPLC/MS/MS analysis; assay type: ADME, organism-based; conditions: in vivo, time 0.083-48 hrs
HeLa [15] = assay: Induction of lipid peroxidation in human HeLa cells assessed as decrease in GSH level incubated for 12 hrs by absorbance based assay; assay type: functional, cell-based; conditions: dose 0.1-1 µM
Chloride [16] = assay: Binding affinity to chloride anions assessed as chloride efflux in egg-yolk L-alpha-phosphatidylcholine liposome model harboring intravesicular KCl/extravesicular NaNO3
HeLa [17] = assay: Induction of cell cycle arrest in human HeLa cells assessed as accumulation of cells at S phase at 0.1 uM incubated for 24 hrs by PI staining based flow cytometry relative to control; assay type: functional
HeLa [18] = assay: Induction of ferroptosis in human HeLa cells assessed as increase in PARP-1 cleavage at 0.1 to 1 uM incubated for 24 hrs by immunoblotting analysis; assay type: functional, cell-based; conditions: dose 0.1-1 µM
[19] = Aqueous solubility of compound; assay type: physicochemical
HeLa [20] = assay: Induction of mitochondrial membrane permeability in human HeLa cells assessed as red fluorescence at 0.1 uM incubated for 24 hrs by JC-1 staining based analysis (reference value: 98.5 %); assay type: functional
HeLa [21] = assay: Antitumor activity against human HeLa cells xenografted in male Balb/C nude mouse assessed as reduction in tumor weight at 10 mg/kg, ip administered on every 2 days measured after 18 days relative to control; assay type: functional; parameters: scale not given: the % may be the effect or the level left; conditions: time 18 day
[22] = Toxicity in male Balb/C nude mouse xenografted with human HeLa cells assessed as abnormalities in spleen at 10 to 20 mg/kg, ip administered on every 2 days measured after 18 days by H and E staining based analysis; assay type: organism-based; conditions: in vivo, 432 h, dose 10-20 mg/kg, time 18 day
HeLa [23] = assay: Antitumor activity against human HeLa cells xenografted in male Balb/C nude mouse assessed as average tumor size at 20 mg/kg, ip administered on every 2 days measured after 18 days (reference value: 1995.1 mm3); assay type: functional; conditions: time 18 day
[24] = Toxicity in male Balb/C nude mouse xenografted with human HeLa cells assessed as abnormalities in brain at 10 to 20 mg/kg, ip administered on every 2 days measured after 18 days by H and E staining based analysis; assay type: organism-based; conditions: in vivo, 432 h, dose 10-20 mg/kg, time 18 day
Liposome = assay: Disruption of egg-yolk L-alpha-phosphatidylcholine liposome model membrane assessed as calcein leakage by fluorescence based assay; assay type: subcellular
Chloride [25] = assay: Binding affinity to chloride anions in human HeLa cells assessed as increase in chloride influx at 1 uM measured after 15 mins by flow cytometry; assay type: cell-based
HeLa [26] = assay: Antitumor activity against human HeLa cells xenografted in male Balb/C nude mouse assessed as reduction in tumor weight at 20 mg/kg, ip administered on every 2 days measured after 18 days relative to control; assay type: functional; parameters: scale not given: the % may be the effect or the level left; conditions: time 18 day

Fc1cc(-c2nc3c(C(F)(F)F)cc(C(F)(F)F)cc3[nH]2)cc(-c2nc3c(C(F)(F)F)cc(C(F)(F)F)cc3[nH]2)c1
Activity (HeLa [1]): Active | Activity (Chloride [2]): 100% | Activity (HeLa [3]): Active | Activity (HeLa [4]): Active | fold change (FC) (Chloride [5]): 2.32 10^2No_unit | Activity (HeLa [6]): Dose-dependent-effect | IC50 (HeLa [7]): 120 nM | Activity (Tubulin (Homo sapiens)): Active | Activity (HeLa [8]): 33.2% | Tmax [9]: 3.5 h | Activity (HeLa [10]): 36% | Activity (Chloride [11]): Active | Activity (HeLa [12]): inactive | Activity [13]: Non-toxic | bioavailability [14]: 22% | Activity (HeLa [15]): Dose-dependent-effect | Activity (Chloride [16]): Active | Activity (HeLa [17]): 22% | Activity (HeLa [18]): Active | solubility [19]: 200 µg/mL (≈ 333 µM) | Activity (HeLa [20]): 90.5% | Activity (HeLa [21]): 57% | Activity [22]: Non-toxic | Activity (HeLa [23]): 626.1 mm3 | Activity [24]: Non-toxic | Activity (Liposome): inactive | Activity (Chloride [25]): inactive | Activity (HeLa [26]): 69%
